What all share (assay): relative viability (nuclei count vs DMSO), 5 days (fraction); higher = more cells survive
Compound in experiment [1]: CN1C=C(C2=CC=CC=C21)/C=C\3/C4=C(C=CC=N4)NC3=O + CCNC(=O)c1noc(-c2cc(C(C)C)c(O)cc2O)c1-c1ccc(CN2CCOCC2)cc1 [Luminespib] (partner 0.01 µM)
Summed up: (§1)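 For relative viability, nuclei counts in treated wells were divided by those in vehicle wells. Lung cancer cell lines had been pin-tool dosed in 1536-well plates the day after seeding and cultured for 5 days, then fixed and stained in one step (final 0.05% Triton X-100, 1% formaldehyde, 1 ug/ml Hoechst) and imaged at 4×. Doses were one drug alone or a fixed anchor-drug dose plus five library-drug doses (not always all listed) in √10 steps, and values are duplicate-plate medians.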

Compound in the experiment “Trametinib + Phenformin”: CC(=O)Nc1cccc(-n2c(=O)n(C3CC3)c(=O)c3c(Nc4ccc(I)cc4F)n(C)c(=O)c(C)c32)c1 [Trametinib] + N=C(N)NC(=N)NCCc1ccccc1 [Phenformin] (partner 250 µM)
The essentials:
as §1

Compound in the experiment “Trametinib + Palbociclib”: CC(=O)Nc1cccc(-n2c(=O)n(C3CC3)c(=O)c3c(Nc4ccc(I)cc4F)n(C)c(=O)c(C)c32)c1 [Trametinib] + CC(=O)c1c(C)c2cnc(Nc3ccc(N4CCNCC4)cn3)nc2n(C2CCCC2)c1=O [Palbociclib] (partner 0.5 µM)
Summed up:
as §1

Compound in the experiment “Trametinib + Pictilisib”: CC(=O)Nc1cccc(-n2c(=O)n(C3CC3)c(=O)c3c(Nc4ccc(I)cc4F)n(C)c(=O)c(C)c32)c1 [Trametinib] + CS(=O)(=O)N1CCN(Cc2cc3nc(-c4cccc5[nH]ncc45)nc(N4CCOCC4)c3s2)CC1 [Pictilisib] (partner 1 µM)
Summed up: as §1

For the cell line UMC-11, the relative viability in experiment [1] (first compound 0.02 µM) came to 0.764; in experiment [1] (first compound 0.06325 µM), 0.943; in experiment [1] (first compound 0.2 µM), 1; in experiment [1] (first compound 0.6325 µM) it was 1.25; in experiment [1] (first compound 2 µM), 1.18; with Trametinib + Phenformin (first compound 0.0025 µM), 0.366. Besides, the relative viability with Trametinib + Phenformin (first compound 0.007906 µM) amounted to 0.328; in the experiment with Trametinib + Phenformin (first compound 0.025 µM), 0.28; with Trametinib + Phenformin (first compound 0.07906 µM), 0.309; in the experiment with Trametinib + Phenformin (first compound 0.25 µM), 0.291; in the experiment with Trametinib + Palbociclib (first compound 0.0025 µM), 0.32; in the experiment with Trametinib + Palbociclib (first compound 0.007906 µM) it was 0.333. Besides, the relative viability came to 0.312 with Trametinib + Palbociclib (first compound 0.25 µM); 0.662 with Trametinib + Pictilisib (first compound 0.0025 µM); 0.785 in the experiment with Trametinib + Pictilisib (first compound 0.007906 µM); 0.297 with Trametinib + Pictilisib (first compound 0.025 µM); 0.709 with Trametinib + Pictilisib (first compound 0.07906 µM); 0.663 with Trametinib + Pictilisib (first compound 0.25 µM).

These data come from the supplement of paper PMC10307832.
